Measured values: patent US20170246311A1, “PEPTIDES FOR BINDING ALTERNATIVELY ACTIVATED MACROPHAGES” (University of Washington, priority 2016, published 2017)
“Also recorded” adds a separate entry of the source. Non-standard residues stand in square brackets, D forms with d. Residues, ends and D or L forms follow the SMILES beside them. *: point of attachment. Biotin = O=C1N[C@H]2[C@H](CS[C@H]2CCCCC(=O)*)N1

Key:
M2 macrophages = experiment: Binding study of biotinylated peptides on polarized bone marrow-derived macrophages (streptavidin-FITC, flow cytometry); assay type: cell-based, mouse; conditions: for binding activity to M2 macrophages (in words): biotinylated peptide, on ice 20 min
Procedure: All animal handling protocols were approved by the University of Washington Institutional Animal Care and Use Committee. Bone marrow harvest was performed following the previously reported protocol. Briefly, femur and tibia were excised from 6-8 week-old female c57bl6/027 mice. Cuts were made on the ends of each bone, and RPMI 1640 medium was used to flush out bone marrow cells via 18G needle. The cells were cultured on petri dishes in RPMI 1640 medium supplemented with 20% donor horse serum, 1% antibiotic-antimycotic (AbAm), and 20 ng/mL M-CSF. After 7 d of culture, macrophages were activated by replacing M-CSF with 25 ng/mL IFN-γ and 100 ng/mL LPS for M1 macrophage or 25 ng/mL IL-4 for M2 macrophage. The macrophages were activated for 2 d and then scraped off the petri dishes with cell lifter for binding studies.
Peptide solutions at different concentrations for binding study were prepared by dilutions from the stock solution (10 mg/mL in dH2O) with PBS containing 1% BSA (PBSA). M1 and M2 macrophages (50,000 cells/well) were seeded on a black 96-well plate and incubated in the peptide solutions on ice for 20 min. Unbound peptides were washed off with PBSA twice. The macrophages were subsequently incubated with streptavidin-FITC for 15 min on ice to probe for the bound peptides. Excess streptavidin-FITC was washed off with PBSA twice, and the macrophages were then resuspended in PBS for analysis by MACSQuant Flow Cytometer (Miltenyi Biotec, San Diego, Calif.). Propidium iodide was added to the samples before the data acquisition to discriminate dead cells. Flow cytometry data were analyzed with FlowJo Analysis Software (Tree Star, Ashland, Oreg.). Binding study of peptides post serum incubation was similarly performed with the following additions: The peptides (5 mM stock solution in H2O) were diluted in serum to a final concentration of 0.5 mM and incubated at 37° C. in an incubator. At each time point, an aliquot of the peptides was drawn and diluted in PBS to the final concentration for the binding study. The diluted aliquot was heated at 80° C. for 30 min to inactivate serum proteins, stored in a −20° C. freezer, and thawed for use in the binding study after aliquots at all time points were collected.
All animal handling protocols were approved by the University of Washington Institutional Animal Care and Use Committee. Bone marrow-derived cells were harvested from female c57bl/6 mice as previously described. In brief, femurs and tibias of the mice were excised and flushed with RPMI 1640 medium via an 18G needle. The cells were cultured on petri dishes containing RPMI 1640 medium supplemented with 20% donor horse serum, 1% antibioticantimycotic (AbAm), and 20 ng/mL M-CSF. After 7 d in culture, the medium was replaced with an activation medium whereby M-CSF was replaced with 25 ng/mL IFN-γ and 100 ng/mL LPS for M1 activation or with 25 ng/mL IL-4 for M2 activation. For M1 activation medium, AbAm was replaced with 1% penicillin-streptomycin (Pen-Strep). After 2 d of activation, the activated macrophages were scraped off the petri dishes for binding studies.
Biotinylated peptide stock solutions were prepared in H2O at 10 mg/mL concentration and quantified for the exact concentration using Quant*Tag Biotin quantification kit. The stock solutions were diluted in PBS with 1% BSA (PBSA) to different concentrations for binding studies. Activated macrophages were seeded on a black 96-well plate (50,000 cells/well) and incubated with the peptide solutions for 20 min on ice. The cells were washed twice with PBSA and subsequently incubated with streptavidin-FITC for 15 min on ice. After two additional washes, the cells were resuspended in PBS for analysis via MACSQuant Flow Cytometer (Miltenyi Biotec, San Diego, Calif.). Propidium iodide (PI) was added before running each sample to assess for cell viability. Data analysis was processed on FlowJo Analysis Software (Tree Star, Ashland, Oreg.). […]

[1] = Serum stability study in normal mouse serum, analysis by MALDI-TOF MS; conditions: mouse serum
Procedure: The peptide of interest (30 μL of 10 mg/mL stock solution in dH2O) was added to normal mouse serum (300 μL) and incubated at 37° C. in an incubator. At each time point, an aliquot of 40 μL was drawn and an equal volume of ACN was added to the aliquot to precipitate serum proteins. The cloudy mixture was centrifuged at 10,000 rpm for 5 min and then supernatant removed. A solution of 1:1 H2O/ACN (80 μL) was added to the pellet and sonicated for 10 min to further extract the remaining peptides. This resuspended mixture was then centrifuged, and the supernatant was pooled with the former and vacuum-dried on a Speedvac machine. The dried pellet was solubilized in H2O (50 μL) by sonication for 10 min. The mixture was then centrifuged, and the supernatant was drawn and analyzed by MALDI-TOF MS.
To evaluate serum stability of M2pep, the peptide was incubated in mouse serum, and aliquots of the serum at various time points were withdrawn for analysis of degradation patterns by MALDI-TOF MS.
Different M2pep analogs (30 μL from 10 mg/mL stock solution in H2O) were incubated in normal mouse serum (300 μL) at 37° C. in an incubator. An aliquot of the serum (40 μL) was drawn at different time intervals and precipitated with an equal volume of cold ACN. The mixture was centrifuged at 15,000 rpm for 5 min, and the supernatant was collected. A solution of H2O/ACN (1:1 v/v, 80 μL) was added to the pellet with a 10-min sonication to further extract residual peptides. The mixture was then centrifuged. The supernatant was pooled with the former and dried under vacuum on a Speedvac machine. The peptide pellet was resuspended in H2O (50 μL) with a 10-min sonication before analysis by MALDI-ToF MS.

SMILES: CC(=O)N[C@@H](Cc1ccc(O)cc1)C(=O)N[C@@H](CCC(=O)O)C(=O)N[C@@H](CCC(N)=O)C(=O)N[C@@H](CC(=O)O)C(=O)N1CCC[C@H]1C(=O)N[C@@H](Cc1c[nH]c2ccccc12)C(=O)NCC(=O)N[C@H](C(=O)N[C@@H](CCCCN)C(=O)N[C@@H](Cc1ccc(O)cc1)C(=O)N[C@@H](Cc1c[nH]c2ccccc12)C(=O)N[C@@H](Cc1ccc(O)cc1)C(=O)NCC(=O)NCC(=O)NCC(=O)N[C@@H](CO)C(=O)N[C@H](CCCCN)C(=O)N[C@H](CCCCN)C(=O)N[C@H](CCCCN)C(=O)N[C@@H](CCCCNC(=O)CCCC[C@@H]1SC[C@@H]2NC(=O)N[C@@H]21)C(N)=O)C(C)C [W10Y, Ac-YEQDPWGVKYWYGGGSkkk] (Ac-YEQDPWGVKYWYGGGS[dK][dK][dK]K(Biotin)-NH2)
- binding activity to M2 macrophages (in words) (M2 macrophages): significantly increased binding activity
- serum stability at the W10/W11 endolytic cleavage site [1]: did not confer protection at the W10/W11 site

SMILES: CC(=O)N[C@@H](Cc1ccc(O)cc1)C(=O)N[C@@H](CCC(=O)O)C(=O)N[C@@H](CCC(N)=O)C(=O)N[C@@H](CC(=O)O)C(=O)N1CCC[C@H]1C(=O)N[C@@H](Cc1c[nH]c2ccccc12)C(=O)NCC(=O)N[C@H](C(=O)N[C@@H](CCCNC(=N)N)C(=O)N[C@@H](Cc1ccc(O)cc1)C(=O)N[C@@H](Cc1c[nH]c2ccccc12)C(=O)N[C@H](Cc1ccc(O)cc1)C(=O)NCC(=O)NCC(=O)NCC(=O)N[C@@H](CO)C(=O)N[C@H](CCCCN)C(=O)N[C@H](CCCCN)C(=O)N[C@H](CCCCN)C(=O)N[C@@H](CCCCNC(=O)CCCC[C@@H]1SC[C@@H]2NC(=O)N[C@@H]21)C(N)=O)C(C)C [Y12y, Ac-YEQDPWGVRYWyGGGSkkk] (Ac-YEQDPWGVRYW[dY]GGGS[dK][dK][dK]K(Biotin)-NH2)
- binding activity to M2 macrophages (in words) (M2 macrophages): reduced binding activity
- serum stability at the W10/W11 endolytic cleavage site [1]: did not improve serum stability at the W10/W11 site

SMILES: CC(=O)N[C@@H](Cc1ccc(O)cc1)C(=O)N[C@@H](CCC(=O)O)C(=O)N[C@@H](CCC(N)=O)C(=O)N[C@@H](CC(=O)O)C(=O)N1CCC[C@H]1C(=O)N[C@@H](Cc1c[nH]c2ccccc12)C(=O)NCC(=O)N[C@H](C(=O)N[C@@H](CCCCN)C(=O)N1CCC[C@H]1C(=O)N[C@@H](Cc1c[nH]c2ccccc12)C(=O)N[C@@H](Cc1ccc(O)cc1)C(=O)NCC(=O)NCC(=O)NCC(=O)N[C@@H](CO)C(=O)N[C@H](CCCCN)C(=O)N[C@H](CCCCN)C(=O)N[C@H](CCCCN)C(=O)N[C@@H](CCCCNC(=O)CCCC[C@@H]1SC[C@@H]2NC(=O)N[C@@H]21)C(N)=O)C(C)C [W10P, Ac-YEQDPWGVKPWYGGGSkkk] (Ac-YEQDPWGVKPWYGGGS[dK][dK][dK]K(Biotin)-NH2)
- binding activity to M2 macrophages (in words) (M2 macrophages): abrogated the binding activity
- serum stability at the W10/W11 endolytic cleavage site [1]: did not confer protection at the W10/W11 site

SMILES: CC(=O)N[C@@H](Cc1ccc(O)cc1)C(=O)N[C@@H](CCC(=O)O)C(=O)N[C@@H](CCC(N)=O)C(=O)N[C@@H](CC(=O)O)C(=O)N1CCC[C@H]1C(=O)N[C@@H](Cc1c[nH]c2ccccc12)C(=O)NCC(=O)N[C@H](C(=O)N[C@@H](CCCCN)C(=O)N[C@@H](Cc1c[nH]c2ccccc12)C(=O)N[C@@H](Cc1c[nH]c2ccccc12)C(=O)N[C@@H](Cc1ccc(O)cc1)C(=O)NCC(=O)NCC(=O)NCC(=O)N[C@@H](CO)C(=O)N[C@@H](CCCCN)C(=O)N[C@@H](CCCCN)C(=O)N[C@@H](CCCCN)C(=O)N[C@@H](CCCCNC(=O)CCCC[C@@H]1SC[C@@H]2NC(=O)N[C@@H]21)C(N)=O)C(C)C [AcM2pepBiotin, Ac-YEQDPWGVKWWYGGGSKKK]
- binding selectivity to M2 macrophages over M1 macrophages (M2 macrophages; M2 versus M1 macrophages): retained binding selectivity to M2 macrophages over M1 macrophages
- binding activity to M2 macrophages (in words) (M2 macrophages): slight, but not statistically significant, reduction in binding activity
- N-terminal (exolytic) degradation in serum [1]: resistant to N-terminal degradation
- overall serum stability (in words) ([1]; 37° C., MALDI-TOF MS): did not improve the overall serum stability

SMILES: CC(=O)N[C@@H](Cc1ccc(O)cc1)C(=O)N[C@@H](CCC(=O)O)C(=O)N[C@@H](CCC(N)=O)C(=O)N[C@@H](CC(=O)O)C(=O)N1CCC[C@H]1C(=O)N[C@@H](Cc1c[nH]c2ccccc12)C(=O)NCC(=O)N[C@H](C(=O)N[C@@H](CCCNC(=N)N)C(=O)N[C@@H](Cc1ccc(O)cc1)C(=O)N[C@@H](Cc1c[nH]c2ccccc12)C(=O)N[C@@H](Cc1ccc(O)cc1)C(=O)NCC(=O)NCC(=O)NCC(=O)N[C@@H](CO)C(=O)N[C@H](CCCCN)C(=O)N[C@H](CCCCN)C(=O)N[C@H](CCCCN)C(=O)N[C@@H](CCCCNC(=O)CCCC[C@@H]1SC[C@@H]2NC(=O)N[C@@H]21)C(N)=O)C(C)C [AcM2pep(RY)Biotin, Ac-YEQDPWGVRYWYGGGSkkk] (Ac-YEQDPWGVRYWYGGGS[dK][dK][dK]K(Biotin)-NH2)
- binding activity to M2 macrophages (in words) (M2 macrophages): did not improve the binding activity any further compared to the K9R analog; also recorded: highest affinity linear M2pep analog
- serum stability at the W10/W11 endolytic cleavage site [1]: did not improve serum stability at the W10/W11 site

SMILES: CC(=O)N[C@@H](Cc1ccc(O)cc1)C(=O)N[C@@H](CCC(=O)O)C(=O)N[C@@H](CCC(N)=O)C(=O)N[C@@H](CC(=O)O)C(=O)N1CCC[C@H]1C(=O)N[C@@H](Cc1c[nH]c2ccccc12)C(=O)NCC(=O)N[C@H](C(=O)N[C@@H](CCCCN)C(=O)N[C@H](Cc1c[nH]c2ccccc12)C(=O)N[C@@H](Cc1c[nH]c2ccccc12)C(=O)N[C@@H](Cc1ccc(O)cc1)C(=O)NCC(=O)NCC(=O)NCC(=O)N[C@@H](CO)C(=O)N[C@@H](CCCCN)C(=O)N[C@@H](CCCCN)C(=O)N[C@@H](CCCCN)C(=O)N[C@@H](CCCCNC(=O)CCCC[C@@H]1SC[C@@H]2NC(=O)N[C@@H]21)C(N)=O)C(C)C [W10w, Ac-YEQDPWGVKwWYGGGSKKK]
- binding activity to M2 macrophages (in words) (M2 macrophages): abrogated binding activity
- serum stability at the W10/W11 endolytic cleavage site [1]: effective protection against endolytic cleavage at the W10/W11 site

SMILES: CC(=O)N[C@@H](Cc1ccc(O)cc1)C(=O)N[C@@H](CCC(=O)O)C(=O)N[C@@H](CCC(N)=O)C(=O)N[C@@H](CC(=O)O)C(=O)N1CCC[C@H]1C(=O)N[C@@H](Cc1c[nH]c2ccccc12)C(=O)NCC(=O)N[C@H](C(=O)N[C@@H](CCCNC(=N)N)C(=O)N[C@@H](Cc1c[nH]c2ccccc12)C(=O)N[C@@H](Cc1c[nH]c2ccccc12)C(=O)N[C@@H](Cc1ccc(O)cc1)C(=O)NCC(=O)NCC(=O)NCC(=O)N[C@@H](CO)C(=O)N[C@@H](CCCCN)C(=O)N[C@@H](CCCCN)C(=O)N[C@@H](CCCCN)C(=O)N[C@@H](CCCCNC(=O)CCCC[C@@H]1SC[C@@H]2NC(=O)N[C@@H]21)C(N)=O)C(C)C [K9R, Ac-YEQDPWGVRWWYGGGSKKK]
- binding activity to M2 macrophages (in words) (M2 macrophages): significantly increased binding activity
- serum stability at the W10/W11 endolytic cleavage site [1]: did not confer protection at the W10/W11 site

SMILES: CC(=O)N[C@@H](Cc1ccc(O)cc1)C(=O)N[C@@H](CCC(=O)O)C(=O)N[C@@H](CCC(N)=O)C(=O)N[C@@H](CC(=O)O)C(=O)N1CCC[C@H]1C(=O)N[C@@H](Cc1c[nH]c2ccccc12)C(=O)NCC(=O)N[C@H](C(=O)N[C@@H](CCCCN)C(=O)N[C@H](Cc1c[nH]c2ccccc12)C(=O)N[C@H](Cc1c[nH]c2ccccc12)C(=O)N[C@@H](Cc1ccc(O)cc1)C(=O)NCC(=O)NCC(=O)NCC(=O)N[C@@H](CO)C(=O)N[C@@H](CCCCN)C(=O)N[C@@H](CCCCN)C(=O)N[C@@H](CCCCN)C(=O)N[C@@H](CCCCNC(=O)CCCC[C@@H]1SC[C@@H]2NC(=O)N[C@@H]21)C(N)=O)C(C)C [W(10,11)w, Ac-YEQDPWGVKwwYGGGSKKK]
- binding activity to M2 macrophages (in words) (M2 macrophages): did not restore the binding activity
